Data taken from article PMC8333425, “Discovery of a dual Ras and ARF6 inhibitor from a GPCR endocytosis screen” (Nature Communications, 2021).
Values joined by “and” are separate entries in the source; they are usually repeats but may differ in a detail not shown here. Identical values can stand only once. Numbered stars: 1 amine (or outer) side, 2 acyl side, 3 side chain; on linkers, the order of the positions; unused ones are H or OH. Bridge positions count the residues as written; N and C are the ends. Square brackets hold non-standard residues; d marks the D form. Peptide text beside a SMILES is read from it. * marks the point of attachment. Leu(3R-OH,Nα-propionyl) = CCC(=O)N[C@H](C(=O)*)[C@H](O)C(C)C; X1 = CC(C)[C@@H](O[*:3])[C@H](N[*:1])C(=O)[*:2]; NMeT = CN[C@H](C(=O)O)[C@@H](C)O; dPhLac = O=C(O)[C@H](O)Cc1ccccc1; NMeA = CN[C@@H](C)C(=O)O; NMeDha = C=C(NC)C(=O)O

What was measured:
MDA-MB-231 cells = experiment: Cell viability assay (MTT), MDA-MB-231; format: cell-based, human; conditions: for cell viability (MTT signal): S_Fig12f
Experimental: (§1) MDA-MB-231 breast cancer cells and A549 lung carcinomas (1500 cells in 150 μl/well) were seeded overnight on a clear 96-well plate. Twenty-four hours later, the cells were treated with 0.1% DMSO, or different concentrations of Rasarfin (as indicated), or 10 µM of 21.4, 21.8 (MDA-MB-231 breast cancer cells) or Doxorubicin for the indicated times at 37 °C. At each time point, 10 μl of 5 mg/ml MTT was added to each well and the plates were incubated for an additional 4 h at 37 °C. The absorbance at 590 nm was measured by plate reader. Experiments were done in triplicate and repeated three times.

A549 cells = experiment: Cell viability assay (MTT), A549; format: cell-based, human; conditions: Doxorubicin
Experimental: as §1

MEK1 = experiment: Western blot of ERK1/2 phosphorylation induced by MEK1 (MEK1-WT / MEK1-DD); format: cell-based, human
Experimental: (§2) HEK293SL cells (10^5 cells per well) were seeded in a poly-L-lysine-coated six-well plate and transiently transfected with 3 μg Flag-AT1R, HA-B2R or HA-β2AR and/or 500 ng Flag-MEK1-WT, Flag-MEK1-DD, Flag-BRAF-WT, Flag-BRAF-V600E, Flag-K-Ras-WT, Flag-K-Ras-G12V, HA-ARF6-WT, or HA-ARF6-T27N. Gαq/11 KO and βarr1/2 KO cells were seeded onto 100 mm dishes at a density of 10^6 cells per dish. Next day, cells were transfected with 3 μg AT1R alone or along with 500 ng of β-arrestin2 using PEI. After 18 h of transfection, cells were detached and re-seeded onto poly-L-lysine coated 12-well plates (~1.5–2 × 10^5cells/well) for subsequent experiments. Forty-eight hours post transfection, in a 37 °C water bath, cells were serum-starved for 30 min, pretreated with DMSO (0.1%) or compound 21/Rasarfin (50 µM or at indicated concentrations) for 30 min, then stimulated or not with the indicated ligand [AngII (1 µM), BK (1 µM), Iso (10 µM) or EGF (100 ng/ml)] at indicated times. Cells were put on ice, washed with PBS and solubilized in 2x laemmli buffer (250 mM Tris–HCl pH 6.8, 2% SDS (w/v), 10% glycerol (v/v), 0.01% bromophenol blue (w/v) and 5% β-mercaptoethanol (v/v)) by heating at 65 °C for 15 min. Lysates were resolved on 10 or 14% SDS-PAGE, transferred to nitrocellulose membranes and immunoblotted for p-ERK1/2, ERK1/2, p-Akt, Akt, HA, Myc, β-actin or FLAG. ImageLab 5.2 software was used to quantify the digital blots as fold of the phosphorylated protein over total protein, which were then normalized as indicated in the figure legends. Uncropped immunoblots are provided in the Source Data file.

Gαq = target: T1, Gαq (Homo sapiens, UniProt P50148); experiment: Gαq BRET sensor, AT1R-mediated; format: cell-based
T1 construct: expressed in transfected cells; host or cells: HEK293SL
Experimental: HEK293SL cells were seeded at a density of 7.5 × 10^5 cells per 100-mm dish and 24 h later, transiently transfected as such. For receptor internalization experiments, cells were transfected with 0.12 μg AT1R-RlucII, B2R-RlucII, or β2AR-RlucII and 0.48 μg of either rGFP-CAAX (to assess removal from the PM) or rGFP-FYVE (to assess accumulation in the endosomes). For β-arrestin recruitment assays, cells were transfected with 0.48 μg of receptor-YFP along with 0.12 μg of β-arrestin-RlucII. For β-arrestin/AP-2 binding experiments, cells were transfected with 1 μg Flag-AT1R, 1 μg β2-Adaptin-YFP, and 0.12 μg β-arrestin2-RlucII. For G protein activation, cells were transfected with 3 μg of sp-Flag-AT1R along with either 4.5 μg of the Gαq-polycistronic BRET sensor or 0.24 μg of the Gαi3-RlucII and 0.6 μg of GFP10-Gγ2 and Gβ1 sensors or 0.12 μg PKN-RBD-RlucII and 0.48 μg of rGFP-CAAX. For PKC activation, cells were transfected with 3 μg of sp-Flag-AT1R and 0.18 μg of the PKC sensor. For GTPase activation experiments, cells were transfected with 1 μg Flag-AT1R, 0.48 μg of rGFP-CAAX, and either 0.12 μg of GGA3-PBD-RlucII, PAK-CRIB-RlucII or Raf-RBD-RlucII. For biosensor validation experiments, cells were additionally transfected with 500 ng Flag-K-Ras-WT, Flag-K-Ras-G12V, Flag-K-Ras-SOS-CAAX, HA-ARF6-WT, HA-ARF6-T27N, Myc-Rac1-WT, Myc-Rac1-Q61L or Myc-Rac1-T17N. For PI3K/Akt activation experiments, cells were transfected with 0.48 μg of rGFP-CAAX and 0.12 μg of Akt (PH)-RlucII. After 18 h of transfection, the media was replaced and cells were divided for subsequent experiments. Cells were detached and seeded onto poly-L-ornithine-coated 96-well flat white bottom plates (BrandTech Scientific) at a density of 2.5 × 10^4 cells per well in media. […] For kinetics of β-arrestin recruitment or β-arrestin binding to receptor and AP-2 experiments, cells were serum starved for 30 min, pretreated with 21 (50 µM) or Barbadin (100 µM) for 30 min, stimulated with 100 nM AngII or 1 µM BK and BRET signals were monitored at indicated times using a Victor X Light plate reader (PerkinElmer). […] The BRET ratio was determined by calculating the ratio of the light emitted by YFP over the light emitted by the RlucII. […] For the kinetics of GTPase and PI3K/Akt activation, cells were serum starved, pretreated with 21 (50 µM) or Wortmannin (200 nM) for 30 min, stimulated with ligand (100 nM AngII or 100 ng/ml EGF) and BRET signals were monitored at indicated times. […] BRET signals were monitored using a Synergy2 (BioTek) microplate reader and coelenterazine 400a (final concentrations of 5 µM) added 3–5 min prior to BRET measurements. […] The BRET ratio was determined by calculating the ratio of the light emitted by rGFP/GFP10 over the light emitted by the RlucII.

[1] = system: ERK1/2 activation by AT1R; experiment: Western blot of AT1R-mediated ERK1/2 phosphorylation; format: cell-based, human; conditions: 50 μM
Experimental: as §2

PI3K/Akt = PI3K/Akt BRET sensor (Akt (PH)-RlucII / rGFP-CAAX), EGFR-mediated; format: cell-based, human
Experimental: HEK293SL cells were seeded at a density of 7.5 × 10^5 cells per 100-mm dish and 24 h later, transiently transfected as such. For receptor internalization experiments, cells were transfected with 0.12 μg AT1R-RlucII, B2R-RlucII, or β2AR-RlucII and 0.48 μg of either rGFP-CAAX (to assess removal from the PM) or rGFP-FYVE (to assess accumulation in the endosomes). For β-arrestin recruitment assays, cells were transfected with 0.48 μg of receptor-YFP along with 0.12 μg of β-arrestin-RlucII. For β-arrestin/AP-2 binding experiments, cells were transfected with 1 μg Flag-AT1R, 1 μg β2-Adaptin-YFP, and 0.12 μg β-arrestin2-RlucII. For G protein activation, cells were transfected with 3 μg of sp-Flag-AT1R along with either 4.5 μg of the Gαq-polycistronic BRET sensor or 0.24 μg of the Gαi3-RlucII and 0.6 μg of GFP10-Gγ2 and Gβ1 sensors or 0.12 μg PKN-RBD-RlucII and 0.48 μg of rGFP-CAAX. For PKC activation, cells were transfected with 3 μg of sp-Flag-AT1R and 0.18 μg of the PKC sensor. For GTPase activation experiments, cells were transfected with 1 μg Flag-AT1R, 0.48 μg of rGFP-CAAX, and either 0.12 μg of GGA3-PBD-RlucII, PAK-CRIB-RlucII or Raf-RBD-RlucII. For biosensor validation experiments, cells were additionally transfected with 500 ng Flag-K-Ras-WT, Flag-K-Ras-G12V, Flag-K-Ras-SOS-CAAX, HA-ARF6-WT, HA-ARF6-T27N, Myc-Rac1-WT, Myc-Rac1-Q61L or Myc-Rac1-T17N. For PI3K/Akt activation experiments, cells were transfected with 0.48 μg of rGFP-CAAX and 0.12 μg of Akt (PH)-RlucII. After 18 h of transfection, the media was replaced and cells were divided for subsequent experiments. Cells were detached and seeded onto poly-L-ornithine-coated 96-well flat white bottom plates (BrandTech Scientific) at a density of 2.5 × 10^4 cells per well in media. The next day, cells were washed once with Tyrode’s buffer (140 mM NaCl, 2.7 mM KCl, 1 mM CaCl2, 12 mM NaHCO3, 5.6 mM D-glucose, 0.5 mM MgCl2, 0.37 mM NaH2PO4, 25 mM HEPES, pH 7.4) and left in Tyrode’s buffer. For kinetics of β-arrestin recruitment or β-arrestin binding to receptor and AP-2 experiments, cells were serum starved for 30 min, pretreated with 21 (50 µM) or Barbadin (100 µM) for 30 min, stimulated with 100 nM AngII or 1 µM BK and BRET signals were monitored at indicated times using a Victor X Light plate reader (PerkinElmer). Coelenterazine H (final concentration of 5 µM) was added 3–5 min prior to BRET measurements. Filter set was 460/80 nm and 535/30 nm for detecting the RlucII Renilla luciferase (donor) and YFP (acceptor) light emissions, respectively. The BRET ratio was determined by calculating the ratio of the light emitted by YFP over the light emitted by the RlucII. For G protein activation, cells were serum starved, pretreated with compounds for 30 min, stimulated with 100 nM AngII for 2 min (Gαq, Gαi3, and Rho sensors) or 5 min (PKC sensor). For the kinetics of GTPase and PI3K/Akt activation, cells were serum starved, pretreated with 21 (50 µM) or Wortmannin (200 nM) for 30 min, stimulated with ligand (100 nM AngII or 100 ng/ml EGF) and BRET signals were monitored at indicated times. For concentration-response curves, cells were serum-starved, pretreated with various concentrations of compounds for 30 min and stimulated with ligand (100 nM AngII, 1 µM BK, 10 µM Isoproterenol (Iso) or 100 ng/ml EGF) in Tyrode’s buffer for 30 min for receptor internalization, 10 min for ARF6, 2 min for Rac and Rho activation and 5 min for Ras activation and PI3K/Akt activation. BRET signals were monitored using a Synergy2 (BioTek) microplate reader and coelenterazine 400a (final concentrations of 5 µM) added 3–5 min prior to BRET measurements. Filter set was 410/80 nm and 515/30 nm for detecting the RlucII Renilla luciferase (donor) and rGFP/GFP10 (acceptor) light emissions, respectively. The BRET ratio was determined by calculating the ratio of the light emitted by rGFP/GFP10 over the light emitted by the RlucII.

T1 sequence (P50148 whole entry): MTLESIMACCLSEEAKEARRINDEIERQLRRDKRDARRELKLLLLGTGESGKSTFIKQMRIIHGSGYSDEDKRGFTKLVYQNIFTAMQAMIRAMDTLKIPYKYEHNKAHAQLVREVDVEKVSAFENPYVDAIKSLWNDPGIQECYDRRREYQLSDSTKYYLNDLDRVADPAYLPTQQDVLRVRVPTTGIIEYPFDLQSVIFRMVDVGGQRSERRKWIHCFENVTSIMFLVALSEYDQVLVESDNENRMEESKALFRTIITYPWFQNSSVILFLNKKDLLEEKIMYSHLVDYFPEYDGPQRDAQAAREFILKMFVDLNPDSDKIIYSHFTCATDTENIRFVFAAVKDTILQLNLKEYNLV
T1 sequence (P62873 whole entry partner): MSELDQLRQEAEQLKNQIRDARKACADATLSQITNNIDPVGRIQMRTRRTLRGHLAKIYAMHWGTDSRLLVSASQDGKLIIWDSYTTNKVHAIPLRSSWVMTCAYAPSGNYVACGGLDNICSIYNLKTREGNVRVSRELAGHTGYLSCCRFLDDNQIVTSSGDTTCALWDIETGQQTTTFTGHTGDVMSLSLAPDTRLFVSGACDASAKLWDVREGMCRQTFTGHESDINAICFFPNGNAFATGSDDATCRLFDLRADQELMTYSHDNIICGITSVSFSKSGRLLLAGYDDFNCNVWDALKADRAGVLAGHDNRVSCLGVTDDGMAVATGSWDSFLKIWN
T1 sequence (P63211 2-71 partner limits assumed): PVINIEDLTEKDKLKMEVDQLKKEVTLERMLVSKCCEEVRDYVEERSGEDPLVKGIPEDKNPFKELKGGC

Compound: COc1cccc2c1C(=O)c1c(O)c3c(c(O)c1C2=O)C[C@@](O)(C(=O)CO)C[C@@H]3O[C@H]1C[C@H](N)[C@H](O)[C@H](C)O1 [Doxorubicin, reference compound]
- MDA-MB-231 cell viability (MTT) (MDA-MB-231 cells; Doxorubicin 10 µM): potently killed cells
- cell viability (MTT signal) (MDA-MB-231 cells; 24h): 0.213 and 0.2235 and 0.2068
- cell viability (MTT signal) (MDA-MB-231 cells; 48h): 0.2026 and 0.1628 and 0.1313
- cell viability (MTT signal) (MDA-MB-231 cells; 72h): 0.1199 and 0.1728 and 0.1331
- cell viability (MTT signal) (A549 cells; 24h): 0.213 and 0.2235 and 0.2068
- cell viability (MTT signal) (A549 cells; 48h): 0.2026 and 0.1628 and 0.1313
- cell viability (MTT signal) (A549 cells; 72h): 0.1331 and 0.1199 and 0.1728

Compound: O=C(NOCC1CC1)c1ccc(F)c(F)c1Nc1ccc(I)cc1Cl [PD184352, reference compound]
- Predicted (LS) mean diff. DMSO vs. compound (Bonferroni's multiple comparisons test) (MEK1; Flag-MEK1 DD): 3.803
- ERK1/2 phosphorylation relative to mock (S_Fig.4c) (MEK1; Flag-MEK1 WT): 0.4899 and 0.8 and 0.4446
- Predicted (LS) mean diff. DMSO vs. compound (Bonferroni's multiple comparisons test) (MEK1; Flag-MEK1 WT): 0.8426
- ERK1/2 phosphorylation relative to mock (S_Fig.4c) (MEK1; mock): 1
- Predicted (LS) mean diff. DMSO vs. compound (Bonferroni's multiple comparisons test) (MEK1; mock): 0

Compound: C=C1C(=O)N[C@@H](C)C(=O)N(C)[C@@H](C)C(=O)N[C@@H]([C@H](OC(=O)[C@@H](NC(=O)CC)[C@H](O)C(C)C)C(C)C)C(=O)N(C)[C@@H]([C@@H](C)OC)C(=O)O[C@H](C(C)C)[C@H](NC(C)=O)C(=O)O[C@H](Cc2ccccc2)C(=O)N1C [UBO-QIC, reference compound] (Ac-[X1][dPhLac][NMeDha]A[NMeA][X1](Leu(3R-OH,Nα-propionyl))[NMeT](Me); ester 1-C)
- Gq BRET sensor signal (S_Fig.4b), single experiments (Gαq): 0.0505 and 0.06125 and 0.044

Compound: CCC(=O)N1CCN(c2ccc(NC(=O)c3cc4ccccc4o3)cc2Cl)CC1 [Compound 21.2]
- inhibition of AT1R-mediated ERK1/2 (MAPK) activation (Fig. 8b) [1]: lost their ability to inhibit MAPK

Compound: COC[C@H]1OC(=O)c2coc3c2[C@@]1(C)C1=C(C3=O)[C@@H]2CCC(=O)[C@@]2(C)C[C@H]1OC(C)=O [Wortmannin, reference compound]
- EGF-promoted BRET (PI3K/Akt; Wortmannin-treated, Log [EGF] (ng/ml) -12): 0

Compound: EGF
- EGF-promoted BRET (PI3K/Akt; EGF 100 ng/ml, time 0 min): 0
- EGF-promoted BRET (PI3K/Akt; EGF 100 ng/ml, time 1 min): 0.3827 and 0.39
- EGF-promoted BRET (PI3K/Akt; EGF 100 ng/ml, time 2 min): 0.5443 and 0.5547
- EGF-promoted BRET (PI3K/Akt; EGF 100 ng/ml, time 3 min): 0.521 and 0.605
- EGF-promoted BRET (PI3K/Akt; EGF 100 ng/ml, time 4 min): 0.6008 and 0.512 and 0.5428
- EGF-promoted BRET (PI3K/Akt; EGF 100 ng/ml, time 5 min): 0.5307 and 0.4867 and 0.5263
